Where a name gives a salt, the structure may show the parent alone.
Assays:
panel of 10 bromodomains = assay: AlphaScreen panel of 10 BRD; type: binding; conditions: 10 BRD of various branches of the bromodomain tree
[1] = system: human kinases and disease-relevant mutant variants; assay: KINOMEscan screen for kinase inhibition; type: binding
[2] = Dynamic vapor sorption (hygroscopicity); type: physicochemical; conditions: relative humidity of up to 80%, dynamic vapor sorption isotherm plots
Source text: Dynamic Vapor Sorption (DVS) data were collected with a SMS DVS Intrinsic from Surface Measurement Systems.

In the case of `COC(=O)N1c2ccc3c(nc([C@H](O)c4cc(F)ccc4OC)n3[C@@H]3CCC[C@@H](C(=O)O)C3)c2CC[C@@H]1C` [Compound 1, (1R,3R)-3-[(7S)-2-[(R)-(5-fluoro-2-methoxyphenyl)(hydroxy)methyl]-6-(methoxycarbonyl)-7-methyl-3H,6H,7H,8H,9H-imidazo[4,5-f]quinolin-3-yl]cyclohexane-1-carboxylic acid], the “activity against panel of 10 bromodomains” value (panel of 10 bromodomains) is reported as “inactive against 8” and the “binding affinity for human kinases and disease-relevant mutant variants” value [1] is reported as “no to low binding affinity”.
`COC(=O)N1c2ccc3c(nc([C@H](O)c4cc(F)ccc4OC)n3[C@@H]3CCC[C@@H](C(=O)O)C3)c2CC[C@@H]1C` [HCl type A salt, (1R,3R)-3-((S)-2-((R)-(5-fluoro-2-methoxyphenyl)(hydroxy)methyl)-6-(methoxycarbonyl)-7-methyl-6,7,8,9-tetrahydro-3H-imidazo [4,5-f]quinolin-3-yl)cyclohexane-1-carboxylic acid] gave a water uptake [2] of 6.3%.
Work on `COC(=O)N1c2ccc3c(nc([C@H](O)c4cc(F)ccc4OC)n3[C@@H]3CCC[C@@H](C(=O)O)C3)c2CC[C@@H]1C` [type B p-toluenesulfonic acid addition salt] yielded a water uptake [2] of 2.1%.
